Results: article PMC12349723, “Computationally accelerated identification of P-glycoprotein inhibitors” (PLOS One, 2025)
Several values for one entry are separate records, joined by “and”; a condition that tells them apart may be missing. Identical values can stand only once. Like-named read-outs stand apart in the source and are kept apart here.

What was measured:
Assay type in all cases: cell-based, human
A2780-ADR cells = experiment: MTT viability assay, reversal of MDR in P-gp overexpressing A2780-ADR cells; conditions: for % Survival (individual sample): single samples (trials 1-3, samples 1-4)
Procedure, shortened: (§1)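 A2780 and doxorubicin-selected (100 nM) P-gp-overexpressing A2780-ADR cells, 3,000/well in RPMI + 10% FBS, were exposed to compounds, with or without chemotherapeutic, for 48 h at 37 °C. MTT read at 570 nm after 4 h; survival expressed as percent of vehicle, or vehicle-plus-chemotherapeutic, control.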

A2780 cells = experiment: MTT viability assay, parental A2780 cells, with or without PTX
Procedure, shortened: as §1

DU145-TXR cells = experiment: MTT viability assay, reversal of MDR (re-sensitization to paclitaxel) in P-gp overexpressing DU145-TXR cells; conditions: for viability at 15 µM: Homo sapiens, 15 µM Compound Alone
Procedure, shortened: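 MTT viability testing was done on P-gp overexpressing, multidrug resistant DU145-TXR human prostate cancer cells. They were kept in 10 nM paclitaxel and seeded at 3,000 cells per well in complete RPMI. Cells were exposed to compound, with or without paclitaxel, for 48 hours. MTT was then added for 4 hours, formazan was dissolved in DMSO, and absorbance was read at 570 nm. Survival was expressed relative to control-treated cells.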

[1] = 15 µM compound with or without 500 nM PTX, 48 h, MTT

`O=S(=O)(CCSc1nnc(-c2ccccc2)c2ccccc12)c1ccccc1` [Compound 96, O=S(=O)(CCSc1nnc(-c2ccccc2)c2ccccc12)c1ccccc1] was tested, and the “Reversal of MDR in A2780-ADR cells” value (A2780-ADR cells; [1]) was “reversed MDR in A2780-ADR cells”, the “Mean % Survival” value (A2780-ADR cells; A2780-ADR cells, 15 µM compound + 500 nM PTX, mean of 12 samples) was 68.8% and the “% Survival (individual sample)” value (A2780-ADR cells; A2780-ADR cells, 15 µM compound + 500 nM PTX) was 58%. The “% Survival (individual sample)” value (A2780-ADR cells; A2780-ADR cells, 15 µM compound alone) was 97%, the viability at 15 µM (A2780-ADR cells; Homo sapiens, A2780 ADR, A2780-ADR cells, 15 µM compound alone, mean of 12 samples, read-out: Mean % Survival) was 105% and the “Increase of PTX toxicity against parental A2780 cells” value (A2780 cells; [1]) was “did not greatly increase the toxicity of PTX against the parental A2780 cells”. For the same compound, the “Mean % Survival” value (A2780 cells; A2780 cells, 15 µM compound + 500 nM PTX, mean of 8 or 12 samples) was 13.9%, the “% Survival (individual sample)” value (A2780 cells; A2780 cells, 15 µM compound + 500 nM PTX, single samples) was 19% and 20% and the viability at 15 µM (A2780 cells; Homo sapiens, A2780, A2780 cells, 15 µM compound alone, mean of 8 or 12 samples, read-out: Mean % Survival) was 76.5%. For the same compound, the “% Survival, mean” value (DU145-TXR cells; 15 µM compound + 500 nM PTX (Paclitaxel, Taxol), DU145-TXR, mean of 8 samples) was 55.3%, the “% Survival” value (DU145-TXR cells; 15 µM compound + 500 nM PTX (Paclitaxel, Taxol), DU145-TXR, trial 1, sample 1) was 56% and the “% Survival” value (DU145-TXR cells; 15 µM compound + 500 nM PTX (Paclitaxel, Taxol), DU145-TXR, trial 1, sample 2) was 66%. The “% Survival” value (DU145-TXR cells; 15 µM compound + 500 nM PTX (Paclitaxel, Taxol), DU145-TXR, trial 1, sample 3) was 66%, the “% Survival” value (DU145-TXR cells; 15 µM compound + 500 nM PTX (Paclitaxel, Taxol), DU145-TXR, trial 1, sample 4) was 63% and the “% Survival” value (DU145-TXR cells; 15 µM compound + 500 nM PTX (Paclitaxel, Taxol), DU145-TXR, trial 2, sample 1) was 47%. For the same compound, the “% Survival” value (DU145-TXR cells; 15 µM compound + 500 nM PTX (Paclitaxel, Taxol), DU145-TXR, trial 2, sample 2) was 50%, the “% Survival” value (DU145-TXR cells; 15 µM compound + 500 nM PTX (Paclitaxel, Taxol), DU145-TXR, trial 2, sample 3) was 48% and the “% Survival” value (DU145-TXR cells; 15 µM compound + 500 nM PTX (Paclitaxel, Taxol), DU145-TXR, trial 2, sample 4) was 46%. For the same compound, the “Re-sensitization of DU145-TXR cells to PTX (reversal of MDR)” value (DU145-TXR cells; 15 µM compound with or without 500 nM PTX, 48 h, MTT, re-sensitization = 30% or greater decrease in cell viability) was “re-sensitized DU145-TXR cells to PTX”, the viability at 15 µM (DU145-TXR cells; DU145-TXR, mean of 8 samples, read-out: % Survival, mean) was 89.2% and the viability at 15 µM (DU145-TXR cells; DU145-TXR, trial 1, sample 1, read-out: % Survival) was 101%. It also gave a viability at 15 µM (DU145-TXR cells; DU145-TXR, trial 1, sample 2, read-out: % Survival) of 100%, a viability at 15 µM (DU145-TXR cells; DU145-TXR, trial 1, sample 3, read-out: % Survival) of 98% and a viability at 15 µM (DU145-TXR cells; DU145-TXR, trial 1, sample 4, read-out: % Survival) of 93%. For the same compound, the viability at 15 µM (DU145-TXR cells; DU145-TXR, trial 2, sample 1, read-out: % Survival) was 85%, the viability at 15 µM (DU145-TXR cells; DU145-TXR, trial 2, sample 2, read-out: % Survival) was 85% and the viability at 15 µM (DU145-TXR cells; DU145-TXR, trial 2, sample 3, read-out: % Survival) was 80%. It also gave a viability at 15 µM (DU145-TXR cells; DU145-TXR, trial 2, sample 4, read-out: % Survival) of 71%.
